Data reported in ChEMBL document CHEMBL1800026 (Bioorg Med Chem, 2010).
Activity calls are given as the source filed them. The calls are words filed in the database; no cut-off is given here.

Columns and labels:
[1] = molecular target: T1, Beta-2 adrenergic receptor (Homo sapiens, UniProt P07550); experiment: Displacement of [3H]CGP-12177 from human beta2-adrenergic receptor expressed in HEK 293 cells; type: cell-based, HEK293
[2] = molecular target: Beta-1 adrenergic receptor (Rattus norvegicus, UniProt P18090); experiment: Displacement of [3H]CGP-12177 from beta1-adrenergic receptor in Sprague-Dawley rat cortical membrane after 2 hrs
Beta-1 adrenergic receptor (Rattus norvegicus, UniProt P18090), sequence (P18090 whole entry): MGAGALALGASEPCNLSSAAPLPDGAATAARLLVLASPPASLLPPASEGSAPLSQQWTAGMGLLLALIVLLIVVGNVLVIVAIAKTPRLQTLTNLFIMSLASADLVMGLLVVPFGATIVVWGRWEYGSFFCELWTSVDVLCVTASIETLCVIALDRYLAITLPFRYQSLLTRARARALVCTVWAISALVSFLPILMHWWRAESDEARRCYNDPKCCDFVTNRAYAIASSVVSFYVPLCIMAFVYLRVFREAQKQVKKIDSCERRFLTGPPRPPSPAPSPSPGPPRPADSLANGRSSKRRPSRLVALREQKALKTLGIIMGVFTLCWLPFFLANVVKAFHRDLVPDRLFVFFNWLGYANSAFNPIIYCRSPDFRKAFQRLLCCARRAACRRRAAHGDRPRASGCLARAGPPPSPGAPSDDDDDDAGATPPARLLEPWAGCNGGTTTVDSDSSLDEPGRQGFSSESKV

[3] = Selectivity ratio of Ki for beta1-adrenergic receptor in Sprague-Dawley rat cortical membrane to Ki for human beta2-adrenergic receptor
[4] = molecular target: T1, Beta-2 adrenergic receptor; experiment: Displacement of [125I]-CYP from human beta2-adrenergic receptor expressed in COS-7 cells by gamma counting; type: cell-based
[5] = molecular target: Beta-1 adrenergic receptor (Homo sapiens, UniProt P08588); experiment: Displacement of [125I]-CYP from human beta1-adrenergic receptor expressed in COS-7 cells by gamma counting; type: cell-based
Beta-1 adrenergic receptor (Homo sapiens, UniProt P08588), sequence (P08588 whole entry): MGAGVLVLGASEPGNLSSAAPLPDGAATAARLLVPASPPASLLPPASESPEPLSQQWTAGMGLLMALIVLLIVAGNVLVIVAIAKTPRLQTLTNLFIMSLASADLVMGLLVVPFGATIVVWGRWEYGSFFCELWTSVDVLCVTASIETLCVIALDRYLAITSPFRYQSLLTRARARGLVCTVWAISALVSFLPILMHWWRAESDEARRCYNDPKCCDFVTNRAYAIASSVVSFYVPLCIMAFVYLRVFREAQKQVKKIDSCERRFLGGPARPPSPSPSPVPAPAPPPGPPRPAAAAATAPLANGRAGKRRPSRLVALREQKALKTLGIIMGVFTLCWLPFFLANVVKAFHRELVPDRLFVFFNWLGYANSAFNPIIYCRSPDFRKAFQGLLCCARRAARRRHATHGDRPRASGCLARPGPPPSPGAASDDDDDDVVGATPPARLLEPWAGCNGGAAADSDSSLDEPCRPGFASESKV

Homo sapiens = organism: Homo sapiens; experiment: Selectivity ratio of Ki for human beta1-adrenergic receptor to Ki human beta2-adrenergic receptor
[6] = molecular target: Beta-2 adrenergic receptor (Rattus norvegicus) (UniProt P10608); experiment: Agonist activity beta2-adrenergic receptor in rat ventricular myocytes assessed as cell contraction following electrical stimulation by optical edge tracking method using photodiode array in presence of receptor antagonist ICI 118551; type: functional, cell-based
Beta-2 adrenergic receptor (Rattus norvegicus), sequence (P10608 whole entry, looked up): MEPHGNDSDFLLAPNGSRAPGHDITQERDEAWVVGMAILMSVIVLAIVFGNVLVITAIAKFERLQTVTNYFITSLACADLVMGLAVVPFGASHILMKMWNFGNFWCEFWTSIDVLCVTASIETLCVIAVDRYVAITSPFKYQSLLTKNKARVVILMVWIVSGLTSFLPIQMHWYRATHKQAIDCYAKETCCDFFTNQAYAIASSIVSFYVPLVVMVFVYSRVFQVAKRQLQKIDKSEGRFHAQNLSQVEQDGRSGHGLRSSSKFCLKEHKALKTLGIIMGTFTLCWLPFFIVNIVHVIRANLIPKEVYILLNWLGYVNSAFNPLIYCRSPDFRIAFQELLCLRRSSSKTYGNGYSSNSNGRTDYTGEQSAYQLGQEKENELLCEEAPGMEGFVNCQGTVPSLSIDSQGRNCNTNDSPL

[7] = molecular target: Beta-2 adrenergic receptor (Rattus norvegicus) (UniProt P10608); experiment: Agonist activity beta2-adrenergic receptor in rat ventricular myocytes assessed as cell contraction following electrical stimulation by optical edge tracking method using photodiode array in presence of receptor agonist zinterol; type: functional, cell-based

T1 sequence (P07550 whole entry): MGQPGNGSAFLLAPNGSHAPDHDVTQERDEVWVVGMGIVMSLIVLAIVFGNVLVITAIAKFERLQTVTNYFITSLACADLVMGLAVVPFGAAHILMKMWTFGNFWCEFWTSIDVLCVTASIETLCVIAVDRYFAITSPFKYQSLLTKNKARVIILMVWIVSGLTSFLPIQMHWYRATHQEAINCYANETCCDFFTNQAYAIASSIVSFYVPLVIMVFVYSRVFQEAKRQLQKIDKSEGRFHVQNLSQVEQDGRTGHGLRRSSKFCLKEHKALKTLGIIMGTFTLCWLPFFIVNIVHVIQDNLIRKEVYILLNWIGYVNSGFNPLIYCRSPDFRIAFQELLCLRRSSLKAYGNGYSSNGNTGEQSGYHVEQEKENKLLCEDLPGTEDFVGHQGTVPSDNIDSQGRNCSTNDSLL

CC[C@@H](Cc1ccc(O)cc1)NC[C@H](O)c1cc(O)cc(O)c1 (racemic)
Ki [1]: 5.76 µM
Ki [2]: 117 µM
Ratio Ki [3]: 20

COc1ccc(C[C@@H](C)NC[C@H](O)c2cc(O)cc(O)c2)c2ccccc12
Ki [2]: 161 µM

C[C@@H](Cc1ccc2ccccc2c1)NC[C@H](O)c1cc(O)cc(O)c1
Ki [2]: 27.1 µM

COc1ccc(C[C@H](C)NC[C@H](O)c2cc(O)cc(O)c2)c2ccccc12 (racemic)
Ki [2]: 14.8 µM

OCc1cc(C(O)CNCCCCCCCCCCCc2ccccc2)ccc1O (stereo not given)
Ki [4]: 220 nM
Ki [5]: 2300 nM
Ratio Ki (Homo sapiens): 10

C[C@H](Cc1ccc2ccccc2c1)NC[C@H](O)c1cc(O)cc(O)c1
Ki [2]: 16.6 µM

CC[C@H](Cc1ccc(O)cc1)NC[C@H](O)c1cc(O)cc(O)c1
Ki [1]: 1.27 µM
Ki [2]: 424 µM
Ratio Ki [3]: 334
Activity [6]: inactive
Activity [7]: Active
